According to ChEMBL document CHEMBL5291721, “A preclinical secondary pharmacology resource illuminates target-adverse drug reaction associations of marketed drugs” (Nat Commun, 2023):

What was measured:
[1] = target: T1, Alpha-2A adrenergic receptor (Homo sapiens, UniProt P08913); type: functional, cell-based
T1 sequence (P08913 whole entry): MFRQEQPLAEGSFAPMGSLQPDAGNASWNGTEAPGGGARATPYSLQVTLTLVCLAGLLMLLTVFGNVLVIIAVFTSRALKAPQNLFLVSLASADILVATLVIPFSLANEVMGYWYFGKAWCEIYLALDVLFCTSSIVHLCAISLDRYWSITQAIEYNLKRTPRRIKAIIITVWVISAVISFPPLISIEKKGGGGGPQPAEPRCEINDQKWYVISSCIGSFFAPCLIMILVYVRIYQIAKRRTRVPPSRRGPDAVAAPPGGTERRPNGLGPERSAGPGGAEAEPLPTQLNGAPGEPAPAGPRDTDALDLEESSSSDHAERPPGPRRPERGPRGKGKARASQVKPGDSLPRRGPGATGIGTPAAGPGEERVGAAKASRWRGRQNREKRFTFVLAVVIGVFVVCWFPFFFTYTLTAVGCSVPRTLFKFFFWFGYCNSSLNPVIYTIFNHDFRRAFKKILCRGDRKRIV

[2] = target: Beta-2 adrenergic receptor (Homo sapiens, UniProt P07550); type: functional, cell-based
Chain of Beta-2 adrenergic receptor (P07550 whole entry): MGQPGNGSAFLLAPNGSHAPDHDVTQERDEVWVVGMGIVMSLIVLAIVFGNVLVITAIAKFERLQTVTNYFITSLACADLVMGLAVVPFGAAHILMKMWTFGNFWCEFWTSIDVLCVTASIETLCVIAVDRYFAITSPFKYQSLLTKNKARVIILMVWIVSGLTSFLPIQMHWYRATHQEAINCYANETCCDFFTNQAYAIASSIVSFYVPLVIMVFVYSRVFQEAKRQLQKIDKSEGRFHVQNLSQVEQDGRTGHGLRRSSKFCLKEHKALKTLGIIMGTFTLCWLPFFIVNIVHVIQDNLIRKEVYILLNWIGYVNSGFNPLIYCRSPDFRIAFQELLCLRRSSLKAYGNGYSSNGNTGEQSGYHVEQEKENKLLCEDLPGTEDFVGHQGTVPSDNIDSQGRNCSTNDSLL

[3] = target: Glutamate receptor ionotropic, NMDA 1 (Rattus norvegicus, UniProt P35439)
[4] = target: 5-hydroxytryptamine receptor 2B (Homo sapiens, UniProt P41595); type: functional, cell-based
Chain of 5-hydroxytryptamine receptor 2B (P41595 whole entry): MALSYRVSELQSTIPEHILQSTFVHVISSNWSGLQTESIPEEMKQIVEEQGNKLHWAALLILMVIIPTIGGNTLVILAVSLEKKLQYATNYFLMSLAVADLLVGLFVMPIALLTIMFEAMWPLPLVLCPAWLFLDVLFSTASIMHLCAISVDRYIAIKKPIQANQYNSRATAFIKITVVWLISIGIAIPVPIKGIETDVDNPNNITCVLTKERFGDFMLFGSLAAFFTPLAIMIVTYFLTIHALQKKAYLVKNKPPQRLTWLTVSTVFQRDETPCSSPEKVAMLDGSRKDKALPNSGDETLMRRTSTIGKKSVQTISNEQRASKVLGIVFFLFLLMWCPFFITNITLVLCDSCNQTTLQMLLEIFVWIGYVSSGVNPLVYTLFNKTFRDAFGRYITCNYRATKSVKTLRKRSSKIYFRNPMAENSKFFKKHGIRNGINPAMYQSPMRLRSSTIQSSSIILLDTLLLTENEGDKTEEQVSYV

D(3) dopamine receptor = D(3) dopamine receptor (Homo sapiens, UniProt P35462)
Chain of D(3) dopamine receptor (P35462 whole entry): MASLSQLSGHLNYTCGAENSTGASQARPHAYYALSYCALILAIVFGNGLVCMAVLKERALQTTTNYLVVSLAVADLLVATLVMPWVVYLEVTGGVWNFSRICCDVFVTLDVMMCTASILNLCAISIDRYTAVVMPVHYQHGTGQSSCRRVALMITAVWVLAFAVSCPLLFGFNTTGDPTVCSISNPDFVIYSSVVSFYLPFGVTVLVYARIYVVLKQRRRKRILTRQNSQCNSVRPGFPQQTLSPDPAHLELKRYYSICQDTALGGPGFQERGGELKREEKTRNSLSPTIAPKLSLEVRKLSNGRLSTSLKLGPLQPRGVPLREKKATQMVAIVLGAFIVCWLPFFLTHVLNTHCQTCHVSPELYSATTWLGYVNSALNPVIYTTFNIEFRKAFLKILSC

Adenosine receptor A1 = target: T2, Adenosine receptor A1 (Homo sapiens, UniProt P30542)
T2 sequence (P30542 whole entry): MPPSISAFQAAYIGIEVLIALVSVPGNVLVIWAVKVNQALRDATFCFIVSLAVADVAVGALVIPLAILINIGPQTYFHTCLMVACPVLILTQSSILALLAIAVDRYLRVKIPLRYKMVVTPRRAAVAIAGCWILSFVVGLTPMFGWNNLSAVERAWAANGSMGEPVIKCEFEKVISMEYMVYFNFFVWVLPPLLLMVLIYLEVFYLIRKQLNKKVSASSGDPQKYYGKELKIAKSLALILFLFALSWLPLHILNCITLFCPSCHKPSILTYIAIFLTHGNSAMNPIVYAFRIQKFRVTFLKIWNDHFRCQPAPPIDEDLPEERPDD

[5] = target: Beta-1 adrenergic receptor (Homo sapiens, UniProt P08588); type: functional
Chain of Beta-1 adrenergic receptor (P08588 whole entry): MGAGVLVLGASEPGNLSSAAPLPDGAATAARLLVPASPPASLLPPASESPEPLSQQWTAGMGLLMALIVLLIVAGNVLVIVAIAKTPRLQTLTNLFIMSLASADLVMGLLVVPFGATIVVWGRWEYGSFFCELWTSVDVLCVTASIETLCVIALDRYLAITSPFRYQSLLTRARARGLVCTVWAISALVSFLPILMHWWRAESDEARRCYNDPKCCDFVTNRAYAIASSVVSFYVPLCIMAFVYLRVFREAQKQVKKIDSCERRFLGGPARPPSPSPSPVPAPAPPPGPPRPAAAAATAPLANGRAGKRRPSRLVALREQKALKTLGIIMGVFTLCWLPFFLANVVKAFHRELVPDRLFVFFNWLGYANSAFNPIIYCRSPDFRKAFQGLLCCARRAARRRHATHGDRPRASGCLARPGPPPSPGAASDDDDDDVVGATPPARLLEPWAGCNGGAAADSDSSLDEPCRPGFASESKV

[6] = target: T3, Type-1 angiotensin II receptor (Homo sapiens, UniProt P30556)
T3 sequence (P30556 whole entry): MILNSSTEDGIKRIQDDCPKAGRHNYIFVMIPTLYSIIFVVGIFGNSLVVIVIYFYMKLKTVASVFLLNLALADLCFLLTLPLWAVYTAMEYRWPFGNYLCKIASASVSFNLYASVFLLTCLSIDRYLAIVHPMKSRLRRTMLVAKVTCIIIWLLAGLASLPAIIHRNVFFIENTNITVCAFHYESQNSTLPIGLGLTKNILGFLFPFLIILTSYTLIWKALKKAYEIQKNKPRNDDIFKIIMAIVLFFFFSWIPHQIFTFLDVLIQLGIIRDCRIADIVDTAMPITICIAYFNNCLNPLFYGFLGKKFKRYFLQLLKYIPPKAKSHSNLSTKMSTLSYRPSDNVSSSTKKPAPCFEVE

[7] = target: Voltage-dependent L-type calcium channel subunit alpha-1C (Rattus norvegicus, UniProt P22002); type: functional
Chain of Voltage-dependent L-type calcium channel subunit alpha-1C (P22002 whole entry): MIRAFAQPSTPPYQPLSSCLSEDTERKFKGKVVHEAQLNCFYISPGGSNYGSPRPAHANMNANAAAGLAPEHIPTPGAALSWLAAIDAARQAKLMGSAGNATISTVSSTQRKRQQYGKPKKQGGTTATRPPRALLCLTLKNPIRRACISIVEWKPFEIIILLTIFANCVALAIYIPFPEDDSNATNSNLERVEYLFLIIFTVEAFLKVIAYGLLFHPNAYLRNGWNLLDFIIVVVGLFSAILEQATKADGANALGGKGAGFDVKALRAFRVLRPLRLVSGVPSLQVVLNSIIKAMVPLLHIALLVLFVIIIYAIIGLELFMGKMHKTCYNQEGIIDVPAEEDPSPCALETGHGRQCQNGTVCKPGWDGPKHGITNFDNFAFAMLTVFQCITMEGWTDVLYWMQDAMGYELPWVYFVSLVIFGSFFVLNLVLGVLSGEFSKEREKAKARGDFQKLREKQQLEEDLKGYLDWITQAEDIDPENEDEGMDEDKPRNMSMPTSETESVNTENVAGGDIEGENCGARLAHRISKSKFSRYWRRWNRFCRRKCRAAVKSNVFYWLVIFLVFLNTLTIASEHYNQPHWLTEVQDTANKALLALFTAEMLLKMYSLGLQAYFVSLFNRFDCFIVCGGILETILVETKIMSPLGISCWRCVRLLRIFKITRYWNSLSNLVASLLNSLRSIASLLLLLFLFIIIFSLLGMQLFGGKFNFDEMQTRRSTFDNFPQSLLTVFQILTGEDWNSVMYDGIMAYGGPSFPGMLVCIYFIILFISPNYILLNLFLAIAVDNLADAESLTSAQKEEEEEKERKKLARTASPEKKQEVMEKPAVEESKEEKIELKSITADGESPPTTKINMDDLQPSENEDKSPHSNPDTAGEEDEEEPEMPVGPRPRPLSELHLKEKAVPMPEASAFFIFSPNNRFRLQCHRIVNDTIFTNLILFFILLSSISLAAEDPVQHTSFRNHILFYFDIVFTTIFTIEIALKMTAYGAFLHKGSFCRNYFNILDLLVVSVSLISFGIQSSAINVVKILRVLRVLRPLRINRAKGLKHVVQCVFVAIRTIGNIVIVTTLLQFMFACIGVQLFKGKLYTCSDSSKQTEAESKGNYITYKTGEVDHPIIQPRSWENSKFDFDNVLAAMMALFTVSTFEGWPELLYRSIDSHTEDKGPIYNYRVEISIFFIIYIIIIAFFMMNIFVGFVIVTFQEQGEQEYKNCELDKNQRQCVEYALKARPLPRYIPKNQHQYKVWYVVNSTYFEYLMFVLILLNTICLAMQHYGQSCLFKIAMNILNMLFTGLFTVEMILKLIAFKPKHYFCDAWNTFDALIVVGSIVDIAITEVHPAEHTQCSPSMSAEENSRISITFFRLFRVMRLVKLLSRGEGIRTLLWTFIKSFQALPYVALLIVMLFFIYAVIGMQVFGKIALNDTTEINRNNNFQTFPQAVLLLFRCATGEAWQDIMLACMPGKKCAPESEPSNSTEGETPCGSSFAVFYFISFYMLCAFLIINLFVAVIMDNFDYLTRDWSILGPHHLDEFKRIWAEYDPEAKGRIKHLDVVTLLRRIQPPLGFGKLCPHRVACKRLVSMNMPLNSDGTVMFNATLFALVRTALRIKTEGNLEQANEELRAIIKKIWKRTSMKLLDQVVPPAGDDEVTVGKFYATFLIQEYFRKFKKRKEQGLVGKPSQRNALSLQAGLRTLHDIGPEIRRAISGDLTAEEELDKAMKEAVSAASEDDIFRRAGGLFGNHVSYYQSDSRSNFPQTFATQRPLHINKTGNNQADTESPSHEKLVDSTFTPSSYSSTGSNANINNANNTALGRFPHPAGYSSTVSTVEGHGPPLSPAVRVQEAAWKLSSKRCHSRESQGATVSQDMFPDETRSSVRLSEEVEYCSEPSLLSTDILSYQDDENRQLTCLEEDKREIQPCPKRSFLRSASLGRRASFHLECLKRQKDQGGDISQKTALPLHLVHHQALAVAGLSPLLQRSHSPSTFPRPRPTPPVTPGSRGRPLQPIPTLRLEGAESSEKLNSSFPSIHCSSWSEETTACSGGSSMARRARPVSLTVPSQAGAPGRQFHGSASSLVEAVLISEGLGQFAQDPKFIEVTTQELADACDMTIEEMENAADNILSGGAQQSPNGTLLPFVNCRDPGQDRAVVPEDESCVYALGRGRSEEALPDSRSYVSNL

[8] = target: T4, Cholecystokinin receptor type A (Homo sapiens, UniProt P32238)
T4 sequence (P32238 whole entry): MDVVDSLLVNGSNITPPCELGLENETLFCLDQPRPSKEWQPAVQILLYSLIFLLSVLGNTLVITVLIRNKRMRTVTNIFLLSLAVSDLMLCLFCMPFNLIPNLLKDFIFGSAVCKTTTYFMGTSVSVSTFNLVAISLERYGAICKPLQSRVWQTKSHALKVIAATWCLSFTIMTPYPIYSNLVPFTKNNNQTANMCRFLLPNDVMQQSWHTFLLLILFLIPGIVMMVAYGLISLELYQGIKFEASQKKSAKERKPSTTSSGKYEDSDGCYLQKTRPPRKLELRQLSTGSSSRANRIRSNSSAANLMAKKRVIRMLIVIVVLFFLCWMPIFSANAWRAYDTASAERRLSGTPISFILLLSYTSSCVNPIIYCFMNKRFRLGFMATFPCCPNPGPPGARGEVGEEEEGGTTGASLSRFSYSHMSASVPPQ

[9] = target: T5, Muscarinic acetylcholine receptor M2 (Homo sapiens, UniProt P08172); type: functional, cell-based
T5 sequence (P08172 whole entry): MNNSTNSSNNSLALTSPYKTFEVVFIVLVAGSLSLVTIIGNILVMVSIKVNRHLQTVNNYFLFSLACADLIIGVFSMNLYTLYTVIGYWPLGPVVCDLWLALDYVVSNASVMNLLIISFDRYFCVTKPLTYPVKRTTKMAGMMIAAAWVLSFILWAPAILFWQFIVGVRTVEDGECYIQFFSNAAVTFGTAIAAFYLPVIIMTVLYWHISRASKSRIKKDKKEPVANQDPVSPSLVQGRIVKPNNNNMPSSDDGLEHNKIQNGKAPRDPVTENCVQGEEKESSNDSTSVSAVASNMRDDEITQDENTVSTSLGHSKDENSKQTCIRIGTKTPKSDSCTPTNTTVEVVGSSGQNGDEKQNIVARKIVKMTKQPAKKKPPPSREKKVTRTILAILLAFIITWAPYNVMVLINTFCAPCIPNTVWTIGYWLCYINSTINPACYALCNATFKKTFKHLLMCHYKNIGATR

Thromboxane A2 receptor = target: T6, Thromboxane A2 receptor (Homo sapiens, UniProt P21731)
T6 sequence (P21731 whole entry): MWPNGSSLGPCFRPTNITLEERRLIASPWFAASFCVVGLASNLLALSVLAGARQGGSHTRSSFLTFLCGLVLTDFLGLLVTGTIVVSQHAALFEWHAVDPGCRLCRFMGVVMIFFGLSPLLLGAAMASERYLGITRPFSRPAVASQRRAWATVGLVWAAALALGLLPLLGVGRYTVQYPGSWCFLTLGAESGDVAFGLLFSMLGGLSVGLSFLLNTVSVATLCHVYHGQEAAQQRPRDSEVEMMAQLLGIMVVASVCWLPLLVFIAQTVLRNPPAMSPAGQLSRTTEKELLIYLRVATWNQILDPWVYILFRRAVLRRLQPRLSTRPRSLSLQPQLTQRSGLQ

[10] = target: Sodium-dependent noradrenaline transporter (Homo sapiens, UniProt P23975)
Chain of Sodium-dependent noradrenaline transporter (P23975 whole entry): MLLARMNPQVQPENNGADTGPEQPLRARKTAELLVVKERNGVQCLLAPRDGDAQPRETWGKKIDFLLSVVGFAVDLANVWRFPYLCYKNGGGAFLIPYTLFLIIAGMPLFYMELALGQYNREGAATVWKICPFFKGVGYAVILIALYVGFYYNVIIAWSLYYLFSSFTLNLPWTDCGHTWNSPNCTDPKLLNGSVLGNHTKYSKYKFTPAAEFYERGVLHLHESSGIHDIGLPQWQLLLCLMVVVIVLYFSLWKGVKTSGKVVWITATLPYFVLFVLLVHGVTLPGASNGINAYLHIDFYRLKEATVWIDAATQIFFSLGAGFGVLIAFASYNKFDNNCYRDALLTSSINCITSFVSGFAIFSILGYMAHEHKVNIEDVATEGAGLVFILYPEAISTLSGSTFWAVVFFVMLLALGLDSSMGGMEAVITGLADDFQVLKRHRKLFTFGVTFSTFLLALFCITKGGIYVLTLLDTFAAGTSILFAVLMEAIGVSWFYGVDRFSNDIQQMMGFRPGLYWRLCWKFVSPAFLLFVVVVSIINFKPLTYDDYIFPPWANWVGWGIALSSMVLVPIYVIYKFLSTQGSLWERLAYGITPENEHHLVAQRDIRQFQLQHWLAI

Vasopressin V2 receptor = Vasopressin V2 receptor (Homo sapiens, UniProt P30518)
Chain of Vasopressin V2 receptor (P30518 whole entry): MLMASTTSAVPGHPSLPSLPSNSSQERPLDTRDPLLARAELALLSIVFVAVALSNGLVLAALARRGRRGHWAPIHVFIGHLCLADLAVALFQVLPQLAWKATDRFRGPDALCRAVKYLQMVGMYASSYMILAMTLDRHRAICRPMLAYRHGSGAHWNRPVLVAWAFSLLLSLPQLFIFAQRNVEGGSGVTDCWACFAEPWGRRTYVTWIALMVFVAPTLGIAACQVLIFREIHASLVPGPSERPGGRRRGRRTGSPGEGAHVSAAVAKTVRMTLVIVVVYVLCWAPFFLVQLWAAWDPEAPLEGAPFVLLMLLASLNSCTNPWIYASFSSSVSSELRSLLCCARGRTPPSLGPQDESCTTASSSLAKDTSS
Further: assay procedure not described here.

AC50 [1] [µM]	AC50 [3] [µM]	AC50 (Adenosine receptor A1) [µM]	AC50 [5] [µM]	AC50 [6] [µM]	AC50 [7] [µM]	AC50 [8] [µM]	AC50 [9] [µM]	AC50 (Thromboxane A2 receptor) [µM]	AC50 [10] [µM]	AC50 (Vasopressin V2 receptor) [µM]	SMILES	AC50 [2] [µM]	AC50 [4] [µM]	AC50 (D(3) dopamine receptor) [µM]
> 30	> 10	> 30	> 30	> 30	> 10	> 30	> 30	> 10	> 30	–	N[C@@H](CC(=O)N1CCn2c(nnc2C(F)(F)F)C1)Cc1cc(F)c(F)cc1F [SITAGLIPTIN]	> 30	> 30	> 30
> 30	> 30	> 30	> 30	> 30	–	> 30	–	> 30	–	> 30	CN(C)CCC[C@@]1(c2ccc(F)cc2)OCc2cc(C#N)ccc21 [ESCITALOPRAM]	> 30	22	–
> 30	> 30	> 30	> 30	> 30	–	> 30	> 30	–	> 30	> 30	CC(C)c1nc(N(C)S(C)(=O)=O)nc(-c2ccc(F)cc2)c1/C=C/[C@@H](O)C[C@@H](O)CC(=O)O [ROSUVASTATIN]	> 30	> 30	> 30
> 30	–	> 30	> 30	> 30	–	> 30	> 30	–	> 30	–	CC(S)C(=O)NCC(=O)O (stereo not drawn) [TIOPRONIN]	> 30	> 30	> 30
15	–	> 30	> 30	29	1.56	> 30	> 10	> 30	7.96	> 30	C[C@@H](Oc1cc(-c2cnn(C3CCNCC3)c2)cnc1N)c1c(Cl)ccc(F)c1Cl [CRIZOTINIB]	> 30	2.7	> 30
> 10	> 10	25	> 10	> 10	> 10	> 10	> 10	> 10	> 10	> 10	O=C1CN(/N=C/c2ccc(-c3ccc([N+](=O)[O-])cc3)o2)C(O)=N1 [DANTROLENE]	–	> 10	> 30
12	> 10	> 30	–	> 30	–	> 30	> 10	–	> 30	> 30	C=C[C@H]1C[N@@]2CC[C@H]1C[C@@H]2[C@@H](O)c1ccnc2ccc(OC)cc12 [QUINIDINE]	> 30	–	2.8
> 30	> 30	> 30	8.8	> 30	–	> 30	> 30	> 30	7.2	20	C[C@@H](NCCCc1cccc(C(F)(F)F)c1)c1cccc2ccccc12	> 30	–	1.5

SMILES	AC50 [1] [µM]	AC50 [3] [µM]	AC50 (Adenosine receptor A1) [µM]	AC50 [5] [µM]	AC50 [6] [µM]	AC50 [7] [µM]	AC50 [8] [µM]	AC50 [9] [µM]	AC50 (Thromboxane A2 receptor) [µM]	AC50 [10] [µM]	AC50 (Vasopressin V2 receptor) [µM]	AC50 [2] [µM]	AC50 [4] [µM]	AC50 (D(3) dopamine receptor) [µM]
CN(CC1(C)CCCO1)S(=O)(=O)c1ccc(Cl)c(S(N)(=O)=O)c1 (stereo not drawn) [MEFRUSIDE]	> 30	> 30	–	–	–	–	–	–	–	–	–	> 30	> 30	> 30
CC(=O)O[C@]1(C(C)=O)CC[C@H]2[C@@H]3C=C(C)C4=CC(=O)CC[C@@H]4[C@H]3CC[C@@]21C [NOMEGESTROL ACETATE]	> 30	> 10	–	> 30	–	–	–	> 30	> 30	> 30	–	> 30	> 30	> 30
C[C@H](CCC(=O)O)[C@H]1CC[C@H]2[C@@H]3[C@@H](O)C[C@@H]4C[C@H](O)CC[C@]4(C)[C@H]3CC[C@]12C [URSODIOL]	> 30	–	> 30	> 30	> 30	–	> 30	> 30	–	> 30	–	> 30	> 30	> 30
C#C[C@]1(O)CC[C@H]2[C@@H]3CCC4=CC(=O)CC[C@@H]4[C@H]3C(=C)C[C@@]21CC [ETONOGESTREL]	> 30	> 30	–	–	–	–	–	–	–	–	–	> 30	> 30	> 30
CCN1CCN(Cc2ccc(Nc3ncc(F)c(-c4cc(F)c5nc(C)n(C(C)C)c5c4)n3)nc2)CC1 [ABEMACICLIB]	> 30	–	> 30	> 30	> 30	–	> 30	> 30	–	> 30	–	> 30	19	> 30
COc1cc2nccc(Oc3ccc(NC(=O)C4(C(=O)Nc5ccc(F)cc5)CC4)cc3)c2cc1OC [CABOZANTINIB]	19	–	> 30	> 30	> 30	–	> 30	> 30	–	> 30	–	> 30	5.8	> 30
OC[C@H]1O[C@@](CO)(O[C@H]2O[C@H](CO)[C@@H](O)[C@H](O)[C@H]2O)[C@@H](O)[C@@H]1O [SUCROSE]	> 30	> 30	> 30	–	> 30	–	> 30	> 30	–	> 30	> 30	> 30	> 30	> 30
